IC50 data for 27 compounds are collected here from patent publication US9676721B2, “Compounds and compositions for the inhibition of NAMPT” (FORMA TM, LLC, priority 2010, dated 2017).

Assay [1] has as its target NAMPT (Homo sapiens (Human), UniProt P43490). Description: Biochemical Inhibition Assay (NAMPT enzymatic reaction, NMN by mass spectrometry). The settings on record: recombinant His-tagged NAMPT 33 nM, 1 μM NAM, 30 minutes; read-out: Biochem IC50. The method, then:
Biochemical Inhibition Assay NAMPT Protein Purification Recombinant His-tagged NAMPT was produced in E. coli cells, purified over a Ni column, and further purified over a size-exclusion column by XTAL Biostructures. The NAMPT Enzymatic Reaction The NAMPT enzymatic reactions were carried out in Buffer A (50 mM Hepes pH 7.5, 50 mM NaCl, 5 mM MgCl2, and 1 mM THP) in 96-well V-bottom plates. The compound titrations were performed in a separate dilution plate by serially diluting the compounds in DMSO to make a 100× stock. […] Background and signal strength was determined by addition (or non-addition) of a serial dilution of NMN to a pre-quenched enzyme and cofactor mix. Quantification of NMN A mass spectrometry-based assay was used to measure the NAMPT reaction product (NMN) and the internal control (L-Cystathionine). NMN and L-Cystathionine were detected using the services of Biocius Lifesciences with the RapidFire system. In short, the NMN and L-Cystathionine are bound to a graphitic carbon cartridge in 0.1% formic acid, eluted in 30% acetonitrile buffer, and injected into a Sciex 4000 mass spectrometer. The components of the sample were ionized with electrospray ionization and the positive ions were detected. […] The fragments are quantified and the analyzed by the following method. % Inhibitions are Determined Using this Method. First the NMN signal is normalized to the L-Cystathionine signal by dividing the NMN signal by the L-Cystathionine signal for each well. The signal from the background wells are averaged and subtracted from the test plates. […] IC50s are Determined Using Excel and this Formula.

Assay [2] deals with A2780 cells. Description: In-Vitro Cell Proliferation Assay (SRB). The format is cell-based. To be noted: Homo sapiens, A2780, 72 h. The method, then: In-Vitro Cell Proliferation Assay […] After overnight incubation at 37° C. and 5% CO2, the compound titrations were performed in a separate dilution plate by serially diluting the compounds in DMSO to make a 1000× stock. The compounds were then further diluted to 10× final concentration in culture media, whereupon 20 μL of each dilution was added to the plated cells with controls (e.g. DMSO and blank) to make a final volume of 200 μL. The final DMSO concentration in each well was 0.1%. The plates were then incubated for 72 hours at 37° C. in a 5% CO2 incubator. The number of viable cells was then assessed using sulforhodamine B (SRB) assay. Cells were fixed at 4° C. for 1 hour with the addition of 50 μL 30% trichloroacetic acid (TCA) to make a final concentration of 6% TCA. The plates were washed four times with H2O and allowed to dry for at least 1 hour, whereupon 100 μL of a […] SRB in 1% acetic acid solution was added to each well and incubated at room temperature for at least 30 minutes. The plates were then washed three times with 1% acetic acid, dried, and treated with 100 μL of 10 mM Tris-Base solution. The plates were then read in a microplate reader at an absorbance of 570 nm. Background was generated on a separate plate with media only. Method for Determining % Inhibition First, the signals from the background plate are averaged, then the background was subtracted from the test plates. […] Formula for Determining IC50 Values: […] Specificity of Cytotoxicity. Inhibition of NAMPT could be reversed by the addition of NAM or NMN. The specificity of the compounds were determined via cell viability assay in the presence of the compound and either NAM or NMN. Percent inhibitions were determined using the method given above.

Structures are written as SMILES. pIC50: −log10 of the molar value.

Chain of NAMPT (P43490 whole entry): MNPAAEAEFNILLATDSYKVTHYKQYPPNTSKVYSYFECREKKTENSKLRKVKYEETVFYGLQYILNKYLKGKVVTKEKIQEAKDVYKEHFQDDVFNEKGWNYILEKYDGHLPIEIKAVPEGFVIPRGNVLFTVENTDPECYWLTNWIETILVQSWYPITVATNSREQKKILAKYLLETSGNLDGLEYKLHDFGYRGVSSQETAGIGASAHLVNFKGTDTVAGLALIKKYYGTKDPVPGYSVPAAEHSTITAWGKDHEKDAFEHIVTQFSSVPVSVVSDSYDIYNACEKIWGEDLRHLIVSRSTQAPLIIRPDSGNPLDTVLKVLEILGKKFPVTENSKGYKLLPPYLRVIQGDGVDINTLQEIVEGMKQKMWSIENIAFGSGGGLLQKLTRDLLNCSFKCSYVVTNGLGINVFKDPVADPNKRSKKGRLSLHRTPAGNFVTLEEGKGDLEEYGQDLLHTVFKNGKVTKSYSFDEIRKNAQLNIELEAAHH

A word on the pIC50: it is the IC50 on a negative log10 scale, so that one unit is a factor of ten. As to `Cc1cccc(S(=O)(=O)c2ccc(CNC(=NC#N)Nc3ccncc3)cc2)c1C` [2-cyano-1-({4-[(2,3-dimethylbenzene)sulfonyl]phenyl}methyl)-3-(pyridin-4-yl)guanidine], the pIC50 in assay [1] is 8.40; in assay [2], 8.46.

For `Cc1ccc(S(=O)(=O)c2ccc(CNC(=NC#N)Nc3ccncc3)cc2)c(C)c1` [2-cyano-1-({4-[(2,4-dimethylbenzene)sulfonyl]phenyl}methyl)-3-(pyridin-4-yl)guanidine], the results for the pIC50 in assay [1] and in assay [2] were 8.62 and 8.82, respectively.

For `COc1ccccc1S(=O)(=O)c1ccc(CNC(=NC#N)Nc2ccncc2)cc1` [2-cyano-1-({4-[(2-methoxybenzene)sulfonyl]phenyl}methyl)-3-(pyridin-4-yl)guanidine], the pIC50 in assay [1] is 8.14; in assay [2], 8.41.

As to `Cc1ccccc1S(=O)(=O)c1ccc(CNC(=NC#N)Nc2ccncc2)cc1` [2-cyano-1-({4-[(2-methylbenzene)sulfonyl]phenyl}methyl)-3-(pyridin-4-yl)guanidine], the pIC50 in assay [1] was 8.10; in assay [2], 8.25.

On to `N#CN=C(NCc1ccc(S(=O)(=O)c2ccc(Cl)c(Cl)c2)cc1)Nc1ccncc1` [2-cyano-1-({4-[(3,4-dichlorobenzene)sulfonyl]phenyl}methyl)-3-(pyridin-4-yl)guanidine], for which the pIC50 in assay [1] was 8.77; in assay [2] it was 9.00.

`N#CN=C(NCc1ccc(S(=O)(=O)c2ccc(F)c(F)c2)cc1)Nc1ccncc1` [2-cyano-1-({4-[(3,4-difluorobenzene)sulfonyl]phenyl}methyl)-3-(pyridin-4-yl)guanidine]: the pIC50 in assay [1] was 9.10; in assay [2], 8.60.

Take `COc1ccc(S(=O)(=O)c2ccc(CNC(=NC#N)Nc3ccncc3)cc2)cc1OC` [2-cyano-1-({4-[(3,4-dimethoxybenzene)sulfonyl]phenyl}methyl)-3-(pyridin-4-yl)guanidine]: the pIC50 in assay [1] was 8.40; in assay [2] it was 8.47.

In the case of `Cc1ccc(S(=O)(=O)c2ccc(CNC(=NC#N)Nc3ccncc3)cc2)cc1C` [2-cyano-1-({4-[(3,4-dimethylbenzene)sulfonyl]phenyl}methyl)-3-(pyridin-4-yl)guanidine], the pIC50 in assay [1] was 8.66; in assay [2] it was 8.92.

In the case of `N#CN=C(NCc1ccc(S(=O)(=O)c2cc(Cl)cc(Cl)c2)cc1)Nc1ccncc1` [2-cyano-1-({4-[(3,5-dichlorobenzene)sulfonyl]phenyl}methyl)-3-(pyridin-4-yl)guanidine], the pIC50 in assay [1] was 7.95; in assay [2], 8.80.

With `N#CN=C(NCc1ccc(S(=O)(=O)c2cc(F)cc(F)c2)cc1)Nc1ccncc1` [2-cyano-1-({4-[(3,5-difluorobenzene)sulfonyl]phenyl}methyl)-3-(pyridin-4-yl)guanidine], the pIC50 is 9.00 in assay [1] and 8.70 in assay [2].

Take `Cc1cc(C)cc(S(=O)(=O)c2ccc(CNC(=NC#N)Nc3ccncc3)cc2)c1` [2-cyano-1-({4-[(3,5-dimethylbenzene)sulfonyl]phenyl}methyl)-3-(pyridin-4-yl)guanidine]: the negative-log IC50 (pIC50) in assay [1] is 8.48; in assay [2] it was 8.80.

As to `N#CN=C(NCc1ccc(S(=O)(=O)c2cccc(C#N)c2)cc1)Nc1ccncc1` [2-cyano-1-({4-[(3-cyanobenzene)sulfonyl]phenyl}methyl)-3-(pyridin-4-yl)guanidine], the pIC50 is 8.77 in assay [1] and 8.21 in assay [2].

With `CCOc1cccc(S(=O)(=O)c2ccc(CNC(=NC#N)Nc3ccncc3)cc2)c1` [2-cyano-1-({4-[(3-ethoxybenzene)sulfonyl]phenyl}methyl)-3-(pyridin-4-yl)guanidine], the negative logarithm of the IC50 (pIC50) in assay [1] is 8.37; in assay [2] it was 8.19.

For the compound `COc1ccc(S(=O)(=O)c2ccc(CNC(=NC#N)Nc3ccncc3)cc2)cc1F` [2-cyano-1-({4-[(3-fluoro-4-methoxybenzene)sulfonyl]phenyl}methyl)-3-(pyridin-4-yl)guanidine], the results for the pIC50 in assay [1] and in assay [2] were 9.00 and 8.70, respectively.

In the case of `Cc1ccc(S(=O)(=O)c2ccc(CNC(=NC#N)Nc3ccncc3)cc2)cc1F` [2-cyano-1-({4-[(3-fluoro-4-methylbenzene)sulfonyl]phenyl}methyl)-3-(pyridin-4-yl)guanidine], the pIC50 in assay [1] was 7.83; in assay [2], 8.21.

On to `COc1cc(F)cc(S(=O)(=O)c2ccc(CNC(=NC#N)Nc3ccncc3)cc2)c1` [2-cyano-1-({4-[(3-fluoro-5-methoxybenzene)sulfonyl]phenyl}methyl)-3-(pyridin-4-yl)guanidine], for which the pIC50 is 8.64 in assay [1] and 8.68 in assay [2].

As for `Cc1cc(F)cc(S(=O)(=O)c2ccc(CN/C(=N\C#N)Nc3ccncc3)cc2)c1` [2-cyano-1-({4-[(3-fluoro-5-methylbenzene)sulfonyl]phenyl}methyl)-3-(pyridin-4-yl)guanidine], the pIC50 in assay [1] is 8.77; in assay [2] it was 8.48.

Regarding `N#CN=C(NCc1ccc(S(=O)(=O)c2cccc(F)c2)cc1)Nc1ccncc1` [2-cyano-1-({4-[(3-fluorobenzene)sulfonyl]phenyl}methyl)-3-(pyridin-4-yl)guanidine], the pIC50 in assay [1] was 8.49; in assay [2] it was 7.84.

Turning to `COc1cc(S(=O)(=O)c2ccc(CNC(=NC#N)Nc3ccncc3)cc2)ccc1C` [2-cyano-1-({4-[(3-methoxy-4-methylbenzene)sulfonyl]phenyl}methyl)-3-(pyridin-4-yl)guanidine], the results for the pIC50 in assay [1] and in assay [2] were 8.92 and 9.10, respectively.

For the compound `COc1cccc(S(=O)(=O)c2ccc(CNC(=NC#N)Nc3ccncc3)cc2)c1` [2-cyano-1-({4-[(3-methoxybenzene)sulfonyl]phenyl}methyl)-3-(pyridin-4-yl)guanidine], the pIC50 in assay [1] is 8.82; in assay [2], 8.47.

With `Cc1cccc(S(=O)(=O)c2ccc(CNC(=NC#N)Nc3ccncc3)cc2)c1` [2-cyano-1-({4-[(3-methylbenzene)sulfonyl]phenyl}methyl)-3-(pyridin-4-yl)guanidine], the pIC50 in assay [1] was 8.28; in assay [2], 8.34.

Consider `N#CN=C(NCc1ccc(S(=O)(=O)c2ccc(C#N)cc2)cc1)Nc1ccncc1` [2-cyano-1-({4-[(4-cyanobenzene)sulfonyl]phenyl}methyl)-3-(pyridin-4-yl)guanidine], for which the figures for the negative logarithm of the IC50 (pIC50) in assay [1] and in assay [2] were 8.23 and 7.86, respectively.

Regarding `CCOc1ccc(S(=O)(=O)c2ccc(CNC(=NC#N)Nc3ccncc3)cc2)cc1F` [2-cyano-1-({4-[(4-ethoxy-3-fluorobenzene)sulfonyl]phenyl}methyl)-3-(pyridin-4-yl)guanidine], the figures for the negative-log IC50 (pIC50) in assay [1] and in assay [2] were 8.22 and 8.49, respectively.

As for `CCOc1ccc(S(=O)(=O)c2ccc(CNC(=NC#N)Nc3ccncc3)cc2)cc1` [2-cyano-1-({4-[(4-ethoxybenzene)sulfonyl]phenyl}methyl)-3-(pyridin-4-yl)guanidine], the pIC50 in assay [1] is 8.25; in assay [2], 8.48.

For `Cc1cc(F)ccc1S(=O)(=O)c1ccc(CNC(=NC#N)Nc2ccncc2)cc1` [2-cyano-1-({4-[(4-fluoro-2-methylbenzene)sulfonyl]phenyl}methyl)-3-(pyridin-4-yl)guanidine], the negative-log IC50 (pIC50) in assay [1] and in assay [2] was 8.27 throughout.

Regarding `Cc1cc(S(=O)(=O)c2ccc(CNC(=NC#N)Nc3ccncc3)cc2)ccc1F` [2-cyano-1-({4-[(4-fluoro-3-methylbenzene)sulfonyl]phenyl}methyl)-3-(pyridin-4-yl)guanidine], the results for the pIC50 in assay [1] and in assay [2] were 8.51 and 8.41, respectively.

In the case of `CS(=O)(=O)c1ccc(S(=O)(=O)c2ccc(CNC(=NC#N)Nc3ccncc3)cc2)cc1` [2-cyano-1-({4-[(4-methanesulfonylbenzene)sulfonyl]phenyl}methyl)-3-(pyridin-4-yl)guanidine], the pIC50 in assay [1] is 8.35; in assay [2] it was 7.88.
